Data published in the supplement of paper PMC10307832.

What was measured:
Assay in all cases: relative viability (nuclei count vs DMSO), 5 days (fraction); higher = more cells survive
[1] = compound: Cc1cnc(CNC(=O)c2c(=O)c3ccc(N4CCCN(C)CC4)nc3n3c2sc2ccccc23)cn1 [CX-5461] + COc1cccc2cc(-c3nc([C@H]4CC[C@H](C(=O)O)CC4)n4ncnc(N)c34)[nH]c12 [OSI-027] (partner 0.5 µM)
In short: (§1)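 Relative viability is defined as nuclei in treated wells over nuclei in vehicle wells. Duplicate plates were run and medians reported. Lung cancer cell lines in 1536-well plates were dosed by pin tool one day after seeding, with one drug or with a fixed anchor-drug dose plus five library-drug doses (not always all listed) in √10 steps, and nuclei were counted after 5 days.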

[2] = compound: Cc1cnc(CNC(=O)c2c(=O)c3ccc(N4CCCN(C)CC4)nc3n3c2sc2ccccc23)cn1 [CX-5461] + CS(=O)(=O)N1CCN(Cc2cc3nc(-c4cccc5[nH]ncc45)nc(N4CCOCC4)c3s2)CC1 [Pictilisib] (partner 1 µM)
In short: as §1

[3] = compound: O=C(Nc1cc(C(F)(F)F)cc(C(F)(F)F)c1)c1cc(Cl)ccc1O [IMD-0354] + CS(=O)(=O)CCNCc1ccc(-c2ccc3ncnc(Nc4ccc(OCc5cccc(F)c5)c(Cl)c4)c3c2)o1 [Lapatinib] (partner 2 µM)
In short: as §1

[4] = compound: O=C(Nc1cc(C(F)(F)F)cc(C(F)(F)F)c1)c1cc(Cl)ccc1O [IMD-0354] + Cc1nc(Nc2ncc(C(=O)Nc3c(C)cccc3Cl)s2)cc(N2CCN(CCO)CC2)n1 [Dasatinib] (partner 0.075 µM)
In short: as §1

Row | Cell Line | relative viability ([1]; first compound 0.01 µM) | relative viability ([1]; first compound 0.03162 µM) | relative viability ([1]; first compound 0.1 µM) | relative viability ([1]; first compound 0.3162 µM) | relative viability ([1]; first compound 1 µM) | relative viability ([2]; first compound 0.01 µM) | relative viability ([2]; first compound 0.03162 µM) | relative viability ([2]; first compound 0.1 µM) | relative viability ([2]; first compound 0.3162 µM) | relative viability ([2]; first compound 1 µM) | relative viability ([3]; first compound 0.04 µM) | relative viability ([3]; first compound 0.1265 µM) | relative viability ([3]; first compound 0.4 µM) | relative viability ([3]; first compound 1.265 µM) | relative viability ([3]; first compound 4 µM) | relative viability ([4]; first compound 0.04 µM) | relative viability ([4]; first compound 0.1265 µM) | relative viability ([4]; first compound 0.4 µM) | relative viability ([4]; first compound 1.265 µM) | relative viability ([4]; first compound 4 µM)
1 | NCI-H2009 | 0.696 | 0.651 | 0.471 | 0.697 | 0.516 | 0.87 | 0.862 | 0.635 | 0.519 | 0.815 | 0.82 | 0.832 | 0.647 | 0.134 | 0.155 | 0.367 | 0.292 | 0.263 | 0.109 | 0.0808
2 | NCI-H2405 | 0.607 | 0.639 | 0.717 | 0.632 | 0.616 | 0.427 | 0.468 | 0.419 | 0.259 | 0.413 | 1.38 | 1.24 | 0.69 | 0.243 | 0.202 | 0.213 | 0.242 | 0.217 | 0.249 | 0.116
3 | NCI-H1755 | 0.732 | 0.736 | 0.713 | 0.646 | 0.655 | 0.463 | 0.484 | 0.446 | 0.301 | 0.383 | 1.31 | 1.1 | 0.598 | 0.303 | 0.197 | 0.438 | 0.461 | 0.395 | 0.243 | 0.34
4 | HCC-78 | 0.409 | 0.362 | 0.366 | 0.363 | 0.354 | 0.187 | 0.194 | 0.172 | 0.252 | 0.212 | 1.16 | 0.889 | 0.729 | 0.0878 | 0.234 | 0.429 | 0.466 | 0.294 | 0.275 | 0.232
5 | LOU-NH91 | 0.756 | 0.728 | 0.714 | – | 0.727 | 0.57 | 0.497 | 0.528 | 0.452 | 0.486 | 0.85 | 0.804 | 0.337 | 0.226 | 0.222 | 0.616 | 0.555 | 0.258 | 0.102 | 0.205
6 | NCI-H3122 | 1.07 | 0.882 | 0.938 | 0.672 | 0.668 | 0.558 | 0.657 | 0.617 | 0.533 | 0.608 | 1.05 | 0.983 | 0.747 | 0.202 | 0.211 | 0.843 | 0.824 | 0.321 | 0.286 | 0.0969
7 | HCC-827 | 0.838 | 0.828 | 0.79 | 0.757 | 0.735 | 1.16 | 0.912 | 1 | 0.87 | 1.12 | 0.195 | 0.187 | 0.186 | 0.168 | 0.145 | 0.357 | 0.301 | 0.348 | 0.235 | 0.248
8 | SW 1573 | 0.61 | 0.621 | 0.401 | 0.477 | 0.179 | 0.56 | 0.471 | 0.461 | 0.59 | 0.452 | 1.07 | 1.25 | 0.362 | 0.628 | 0.14 | 0.763 | 0.449 | 0.242 | 0.128 | 0.0881
9 | NCI-H1975 | 0.842 | 0.735 | 0.661 | 0.865 | 0.329 | 0.293 | 0.274 | 0.274 | 0.315 | 0.209 | 1.13 | 0.875 | 0.575 | 0.194 | 0.185 | 0.421 | 0.398 | 0.233 | 0.128 | 0.135
10 | NCI-H1651 | 0.61 | 0.62 | – | 0.458 | 0.131 | – | 0.414 | – | 0.489 | 0.105 | 0.904 | 0.803 | 0.402 | 0.136 | 0.131 | 0.515 | 0.363 | 0.26 | 0.0542 | 0.0748
11 | LCLC-97TM1 | 0.483 | 0.591 | 0.49 | – | 0.484 | 0.179 | 0.172 | 0.188 | – | 0.204 | – | 0.792 | 0.419 | 0.27 | 0.144 | 0.881 | 0.77 | 0.386 | 0.238 | 0.145
12 | NCI-H727 | 0.59 | 0.866 | 0.622 | 0.58 | 0.584 | 0.355 | 0.492 | 0.277 | 0.253 | 0.614 | 0.801 | 0.84 | 0.55 | 0.439 | 0.325 | 0.325 | 0.4 | 0.326 | 0.256 | 0.314
13 | NCI-H1355 | 0.438 | 0.428 | 0.456 | 0.267 | 0.321 | 0.469 | 0.433 | 0.493 | 0.163 | 0.407 | 1.27 | 1.16 | 0.829 | 0.213 | 0.21 | 0.761 | 0.718 | 0.574 | 0.198 | 0.294
14 | HOP-62 | 0.824 | 0.941 | 0.83 | 0.93 | 0.594 | 0.592 | 1.16 | 0.727 | 0.167 | 0.623 | 0.974 | 1.13 | 0.603 | 0.662 | 0.0827 | 0.629 | 0.637 | 0.441 | 0.213 | 0.164
15 | NCI-H2085 | 0.845 | 0.75 | 0.625 | 0.557 | 0.557 | 0.551 | 0.408 | 0.435 | 0.514 | 0.374 | 0.78 | 0.797 | 0.64 | 0.389 | 0.298 | 0.219 | 0.241 | 0.298 | 0.195 | 0.201
